Consider 6 compounds from the NIST ThermoML archive (doi:10.1016/j.jct.2008.05.010).

Data set [1] in a line: refractive index (Na D-line) (dimensionless). The following applies: 298.15 K; 101.33 kPa; Liquid; Standard Abbe refractometry.
The conditions of data set [2]: 298.15 K; 101.33 kPa; Liquid.

± gives the expanded uncertainty stated by the source.

In the case of `CNC=O` [N-methylformamide], the refractive index in data set [1] came out at 1.4303 ± 0.0007. The mass density in data set [2] is listed as 998.97 ± 0.39 kg/m3.

For the compound `CC(C)=O` [acetone], the refractive index in data set [1] worked out at 1.3564 ± 0.0007. Also, the mass density in data set [2] is recorded as 784.59 ± 0.24 kg/m3.

For the compound `NC=O` [formamide], in data set [1], the refractive index was found to be 1.4463 ± 0.0007. Besides, the mass density in data set [2] is recorded as 1129.11 ± 0.4 kg/m3.

With `CN(C)C=O` [dimethylformamide], in data set [1], the refractive index was 1.4279 ± 0.0007. The mass density in data set [2] is listed as 943.87 ± 0.26 kg/m3.

On to `CC(=O)N(C)C` [N,N-dimethylethanamide], for which, in data set [1], the refractive index is recorded as 1.4362 ± 0.0007. Also, the mass density in data set [2] is on record as 936.44 ± 0.13 kg/m3.

Take `C[S+](C)[O-]` [dimethyl sulfoxide]: the refractive index in data set [1] worked out at 1.4771 ± 0.0007. For the same compound, in data set [2], the mass density was found to be 1095.66 ± 0.15 kg/m3.
